Measurements taken from patent publication US7199132B2, “Tropane analogs and methods for inhibition of monoamine transport” (Organix, Inc., priority 2001, dated 2007).

Legend:
[1] = molecular target: T1, serotonin transporter (Macaca mulatta, UniProt Q9MYX0); assay: Serotonin transporter assay: inhibition of {3H}citalopram binding in caudate-putamen membranes; set-up: species or system rhesus or cynomolgus monkey; details: IC50 (nM) SERT, monkey caudate-putamen, mean of 2 or more independent experiments in triplicate
T1 construct: The serotonin transporter was assayed in caudate-putamen membranes using conditions similar to those for the dopamine transporter; from tissue; host or cells: caudate-putamen membranes of cynomolgus or rhesus monkey brain
T1 sequence (Q9MYX0 whole entry): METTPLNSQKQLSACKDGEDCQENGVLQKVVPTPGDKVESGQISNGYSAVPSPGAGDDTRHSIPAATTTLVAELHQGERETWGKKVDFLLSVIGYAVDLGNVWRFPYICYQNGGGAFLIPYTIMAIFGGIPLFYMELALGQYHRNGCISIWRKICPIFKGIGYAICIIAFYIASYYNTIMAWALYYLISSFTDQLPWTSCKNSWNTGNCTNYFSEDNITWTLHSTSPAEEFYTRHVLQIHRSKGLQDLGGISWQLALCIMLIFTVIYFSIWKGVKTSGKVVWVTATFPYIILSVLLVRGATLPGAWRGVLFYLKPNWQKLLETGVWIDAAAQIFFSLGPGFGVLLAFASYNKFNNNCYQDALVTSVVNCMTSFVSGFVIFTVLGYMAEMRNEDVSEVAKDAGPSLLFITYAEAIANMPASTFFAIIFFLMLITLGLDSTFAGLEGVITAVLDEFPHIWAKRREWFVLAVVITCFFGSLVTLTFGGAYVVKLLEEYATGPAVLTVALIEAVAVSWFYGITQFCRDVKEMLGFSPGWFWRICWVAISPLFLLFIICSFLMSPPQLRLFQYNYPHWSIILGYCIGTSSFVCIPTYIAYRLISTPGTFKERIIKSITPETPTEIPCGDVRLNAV

[2] = molecular target: T2, dopamine transporter (Macaca fascicularis, UniProt Q9GJT6); assay: Dopamine transporter assay: inhibition of {3H}WIN 35,428 binding in caudate-putamen membranes; set-up: species or system rhesus or cynomolgus monkey; details: for SERT/DAT: selectivity ratio IC50 SERT / IC50 DAT; for IC50: IC50 (nM) DAT, inhibition of {3H}WIN 35,428 binding, monkey caudate-putamen, mean of 2 or more independent experiments in triplicate
T2 construct: The caudate-putamen was dissected from coronal slices and yielded 1.4±0.4 g tissue; Membranes were prepared as described previously; from tissue; host or cells: caudate-putamen membranes of cynomolgus or rhesus monkey brain
T2 sequence (Q9GJT6 whole entry): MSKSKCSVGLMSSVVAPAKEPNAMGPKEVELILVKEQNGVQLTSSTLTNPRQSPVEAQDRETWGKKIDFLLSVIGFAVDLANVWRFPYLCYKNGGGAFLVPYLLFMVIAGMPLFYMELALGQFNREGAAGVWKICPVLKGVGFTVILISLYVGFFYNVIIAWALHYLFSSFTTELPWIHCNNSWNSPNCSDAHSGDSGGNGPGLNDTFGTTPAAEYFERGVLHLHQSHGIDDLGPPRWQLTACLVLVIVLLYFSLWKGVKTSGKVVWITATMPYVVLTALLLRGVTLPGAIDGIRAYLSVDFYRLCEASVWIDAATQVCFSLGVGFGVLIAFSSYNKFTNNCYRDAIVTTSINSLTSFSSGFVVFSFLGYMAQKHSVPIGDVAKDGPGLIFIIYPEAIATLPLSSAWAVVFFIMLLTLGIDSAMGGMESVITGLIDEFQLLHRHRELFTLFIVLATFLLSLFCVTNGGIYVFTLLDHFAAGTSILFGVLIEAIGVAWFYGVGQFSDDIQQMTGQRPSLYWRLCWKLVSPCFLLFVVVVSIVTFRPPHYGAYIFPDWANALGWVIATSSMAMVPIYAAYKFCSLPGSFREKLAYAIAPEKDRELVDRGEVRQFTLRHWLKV

| Compound | melting point [°C] | IC50 [1] [nM] | SERT/DAT [2] | IC50 [2] [nM] |
| --- | --- | --- | --- | --- |
| COC(=O)C1=C(c2ccc(Cl)c(Cl)c2)C[C@@H]2[C@@H](O)C[C@H]1N2C (racemic) [Compound 7a, 2-Carbomethoxy-3-(3,4-dichlorophenyl)-6β-hydroxy-8-methyl-8-azabicyclo{3.2.1}oct-2-ene] | 94 to 96 | 3320 | 60 |  |
| COC(=O)C1=C(c2ccccc2)C[C@@H]2C[C@@H](O)[C@H]1N2C (racemic) [Compound 8d, 2-Carbomethoxy-3-phenyl-7β-hydroxy-8-methyl-8-azabicyclo{3.2.1}oct-2-ene] | 113 to 114 | > 10000 | 1 | > 10000 |
| COC(=O)C1C(c2ccc(Cl)c(Cl)c2)CC2CC(O)C1N2C (racemic) [Compound 15a, 2β-Carbomethoxy-3β-(3,4-dichlorophenyl)-7β-hydroxy-8-methyl-8-azabicyclo{3.2.1}octane] | 185.5 to 186.5 | 27.7 | 20 |  |
| COC(=O)[C@@H]1[C@H]2[C@H](O)C[C@@H](C[C@@H]1c1ccc(F)cc1)N2C (racemic) [Compound 15c, 2β-Carbomethoxy-3β-(4-fluorophenyl)-7β-hydroxy-8-methyl-8-azabicyclo{3.2.1}octane] | 179.3 to 181.3 | > 10000 | >80 |  |
| COC(=O)[C@H]1[C@@H](c2ccc(Cl)c(Cl)c2)C[C@@H]2[C@@H](O)C[C@H]1N2C (relative stereo) [Compound 14a, 2β-Carbomethoxy-3β-(3,4-dichlorophenyl)-6β-hydroxy-8-methyl-8-azabicyclo{3.2.1}octane] | 93.5 to 95.5 | 166 | 55 |  |
| COC(=O)[C@H]1[C@@H](c2ccc3ccccc3c2)C[C@@H]2[C@@H](O)C[C@H]1N2C (relative stereo) [Compound 14b, 2β-Carbomethoxy-3β-(2-naphthyl)-6β-hydroxy-8-methyl-8-azabicyclo{3.2.1}octane] | 84 to 86 | 34.2 | 4 |  |
| COC(=O)[C@H]1[C@@H](c2ccccc2)C[C@@H]2[C@@H](O)C[C@H]1N2C (relative stereo) [Compound 14d, 2β-Carbomethoxy-3β-phenyl-6β-hydroxy-8-methyl-8-azabicyclo{3.2.1}octane] | 150 to 152 | 88000 | 14 |  |
| COC(=O)[C@@H]1[C@H]2[C@H](O)C[C@@H](C[C@@H]1c1ccc3ccccc3c1)N2C (relative stereo) [Compound 15b, 2β-Carbomethoxy-3β-(2-naphthyl)-7β-hydroxy-8-methyl-8-azabicyclo{3.2.1}octane] | 207.5 to 208.5 | 5.57 | 4 |  |
| COC(=O)[C@@H]1[C@H]2C[C@H](O)[C@@H](C[C@H]1c1ccc3ccccc3c1)N2C (relative stereo) [Compound 17b, 2β-Carbomethoxy-3α-(2-naphthyl)-6β-hydroxy-8-methyl-8-azabicyclo{3.2.1}octane] | 93.5 to 94.5 | 180 | 6 |  |
| COC(=O)[C@@H]1[C@H]2[C@H](O)C[C@@H](C[C@H]1c1ccc3ccccc3c1)N2C (relative stereo) [Compound 18b, 2β-Carbomethoxy-3α-(2-naphthyl)-7β-hydroxy-8-methyl-8-azabicyclo{3.2.1}octane] | 140.1 to 141.9 | 94 | 34 |  |
| COC(=O)[C@@H]1[C@H]2[C@H](O)C[C@@H](C[C@H]1c1ccc(F)cc1)N2C (relative stereo) [Compound 18c, 2β-Carbomethoxy-3α-(4-fluorophenyl)-7β-hydroxy-8-methyl-8-azabicyclo{3.2.1}octane] | 177.2 to 179 | > 20000 | >120 |  |
| COC(=O)[C@@H]1[C@H]2C(=O)C[C@@H](C[C@H]1c1ccc(Cl)c(Cl)c1)N2C (relative stereo) [Compound 20, 2β-Carbomethoxy-3α-(3,4-dichlorophenyl)-8-methyl-8-azabicyclo{3.2.1}oct-7-one] | 163.5 to 164.5 | 7040 |  | 14.2 |
| CCC(=O)[C@@H]1[C@H]2[C@H](O)C[C@@H](C[C@@H]1c1ccc(Cl)c(Cl)c1)N2C (relative stereo) [Compound 23, 1-{3β-(3,4-Dichlorophenyl)-7β-hydroxy-8-methyl-8-azabicyclo{3.2.1}oct-2-yl}propan-1-one] | 195.5 to 196.5 | 97 |  | 0.81 |
| CCC(=O)[C@@H]1[C@H]2[C@H](O)C[C@@H](C[C@H]1c1ccc(Cl)c(Cl)c1)N2C (relative stereo) [Compound 26, 1-{3α-(3,4-Dichlorophenyl)-7β-hydroxy-8-methyl-8-azabicyclo{3.2.1}oct-2-yl}propan-1-one] | 113.1 to 114.1 | 2520 |  | 1.1 |
| COC(=O)[C@@H]1[C@H]2C[C@@H](O)[C@@H](C[C@H]1c1ccc(Cl)c(Cl)c1)N2C (relative stereo) [Compound 30a, 2β-Carbomethoxy-3α-(3,4-dichlorophenyl)-6α-hydroxy-8-methyl-8-azabicyclo{3.2.1}octane] | 161.2 to 162.2 | 10700 |  |  |
| COC(=O)[C@@H]1[C@H]2[C@@H](O)C[C@@H](C[C@H]1c1ccc(Cl)c(Cl)c1)N2C (relative stereo) [Compound 30b, 2β-Carbomethoxy-3α-(3,4-dichlorophenyl)-7α-hydroxy-8-methyl-8-azabicyclo{3.2.1}octane] | 121 to 123 | 991 |  |  |
| COC(=O)[C@@H]1[C@H]2[C@H](O)C[C@@H](C[C@H]1OC(c1ccc(F)cc1)c1ccc(F)cc1)N2C (relative stereo) [Compound 32b, 2β-Carbomethoxy-3α-bis(fluorophenyl)methoxy-7β-hydroxy-8-methyl-8-azabicyclo{3.2.1}octane] | 150 to 152 | 9560 |  |  |
| COC(=O)C1=C(c2ccc3ccccc3c2)CC2C(O)CC1N2C (stereo not drawn) [Compound 7b, 2-Carbomethoxy-3-(2-naphthyl)-6β-hydroxy-8-methyl-8-azabicyclo{3.2.1}oct-2-ene] | 165 to 167 | 260 | 1 |  |
| COC(=O)C1=C(c2ccc(F)cc2)CC2C(O)CC1N2C (stereo not drawn) [Compound 7c, 2-Carbomethoxy-3-(4-fluorophenyl)-6β-hydroxy-8-methyl-8-azabicyclo{3.2.1}oct-2-ene] | 124 to 126 | > 20000 | 1 | > 20000 |
| COC(=O)C1=C(c2ccccc2)CC2C(O)CC1N2C (stereo not drawn) [Compound 7d, 2-Carbomethoxy-3-phenyl-6β-hydroxy-8-methyl-8-azabicyclo{3.2.1}oct-2-ene] | 165 to 167 | > 100000 | 1 | > 150000 |
| COC(=O)C1=C(c2ccc3ccccc3c2)CC2CC(O)C1N2C (stereo not drawn) [Compound 8b, 2-Carbomethoxy-3-(2-naphthyl)-7β-hydroxy-8-methyl-8-azabicyclo{3.2.1}oct-2-ene] | 164.2 to 165.2 | 677 | 15 |  |
| COC(=O)C1C(c2ccc(F)cc2)CC2C(O)CC1N2C (stereo not drawn) [Compound 14c, 2β-Carbomethoxy-3β-(4-fluorophenyl)-6β-hydroxy-8-methyl-8-azabicyclo{3.2.1}octane] | 162 to 164 | > 20000 | >42 |  |
